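Growth conditions: 96-well plates. Treatment: test compound, 48 hours, 5 concentrations. Analysis: linear interpolation between bracketing concentrations; unreached endpoints set to highest concentration. TGI: total growth inhibition.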
Legend:
Assay in all cases: NCI anticancer screen, dose series, 48 h
786-0 renal = tested on: 786-0 renal
A498 renal = tested on: A498 renal
A549 NSCLC = tested on: A549 NSCLC
ACHN renal = tested on: ACHN renal
BT-549 breast = tested on: BT-549 breast
CAKI-1 renal = tested on: CAKI-1 renal
CCRF-CEM leukemia = tested on: CCRF-CEM leukemia
COLO 205 colon = tested on: COLO 205 colon
DU-145 prostate = tested on: DU-145 prostate
EKVX NSCLC = tested on: EKVX NSCLC
HCT-116 colon = tested on: HCT-116 colon
HCT-15 colon = tested on: HCT-15 colon
HL-60(TB) leukemia = tested on: HL-60(TB) leukemia
HOP-62 NSCLC = tested on: HOP-62 NSCLC
HOP-92 NSCLC = tested on: HOP-92 NSCLC
HS 578T breast = tested on: HS 578T breast
HT29 colon = tested on: HT29 colon
IGROV1 ovarian = tested on: IGROV1 ovarian
K-562 leukemia = tested on: K-562 leukemia
KM12 colon = tested on: KM12 colon
LOX IMVI melanoma = tested on: LOX IMVI melanoma
M14 melanoma = tested on: M14 melanoma
MALME-3M melanoma = tested on: MALME-3M melanoma
MCF7 breast = tested on: MCF7 breast
MDA-MB-231 breast = tested on: MDA-MB-231 breast
MDA-MB-435 = tested on: MDA-MB-435
MDA-N = tested on: MDA-N
MOLT-4 leukemia = tested on: MOLT-4 leukemia
NCI-H226 lung = tested on: NCI-H226 lung
NCI-H23 lung = tested on: NCI-H23 lung
NCI-H522 lung = tested on: NCI-H522 lung
NCI/ADR-RES ovarian = tested on: NCI/ADR-RES ovarian
OVCAR-3 ovarian = tested on: OVCAR-3 ovarian
OVCAR-5 ovarian = tested on: OVCAR-5 ovarian
OVCAR-8 ovarian = tested on: OVCAR-8 ovarian
RPMI-8226 leukemia = tested on: RPMI-8226 leukemia
RXF 393 renal = tested on: RXF 393 renal
SF-268 CNS = tested on: SF-268 CNS
SF-295 CNS = tested on: SF-295 CNS
SF-539 CNS = tested on: SF-539 CNS
SK-MEL-2 melanoma = tested on: SK-MEL-2 melanoma
SK-MEL-28 melanoma = tested on: SK-MEL-28 melanoma
SK-MEL-5 melanoma = tested on: SK-MEL-5 melanoma
SK-OV-3 ovarian = tested on: SK-OV-3 ovarian
SN12C renal = tested on: SN12C renal
SNB-19 CNS = tested on: SNB-19 CNS
SNB-75 CNS = tested on: SNB-75 CNS
SR leukemia = tested on: SR leukemia
SW-620 colon = tested on: SW-620 colon
T-47D breast = tested on: T-47D breast
TK-10 renal = tested on: TK-10 renal
UACC-257 melanoma = tested on: UACC-257 melanoma
UACC-62 melanoma = tested on: UACC-62 melanoma
UO-31 renal = tested on: UO-31 renal
NCI-H460 lung = tested on: NCI-H460 lung
OVCAR-4 ovarian = tested on: OVCAR-4 ovarian
U251 CNS = tested on: U251 CNS
HCC-2998 colon = tested on: HCC-2998 colon
PC-3 prostate = tested on: PC-3 prostate

Question: Which results are given for `Cn1c(N)c(Cc2ccc(Cl)cc2)c(=O)[nH]c1=O`?
Answer: TGI (786-0 renal): > 100 µM; TGI (A498 renal): > 100 µM; TGI (A549 NSCLC): > 100 µM; TGI (ACHN renal): > 100 µM; TGI (BT-549 breast): > 100 µM; TGI (CAKI-1 renal): > 100 µM; TGI (CCRF-CEM leukemia): > 100 µM; TGI (COLO 205 colon): > 100 µM; TGI (DU-145 prostate): > 100 µM; TGI (EKVX NSCLC): > 100 µM; TGI (HCT-116 colon): > 100 µM; TGI (HCT-15 colon): > 100 µM; TGI (HL-60(TB) leukemia): > 100 µM; TGI (HOP-62 NSCLC): > 100 µM; TGI (HOP-92 NSCLC): > 100 µM; TGI (HS 578T breast): > 100 µM; TGI (HT29 colon): > 100 µM; TGI (IGROV1 ovarian): > 100 µM; TGI (K-562 leukemia): > 100 µM; TGI (KM12 colon): > 100 µM; TGI (LOX IMVI melanoma): > 100 µM; TGI (M14 melanoma): > 100 µM; TGI (MALME-3M melanoma): > 100 µM; TGI (MCF7 breast): > 100 µM; TGI (MDA-MB-231 breast): > 100 µM; TGI (MDA-MB-435): > 100 µM; TGI (MDA-N): > 100 µM; TGI (MOLT-4 leukemia): > 100 µM; TGI (NCI-H226 lung): > 100 µM; TGI (NCI-H23 lung): > 100 µM; TGI (NCI-H522 lung): > 100 µM; TGI (NCI/ADR-RES ovarian): > 100 µM; TGI (OVCAR-3 ovarian): > 100 µM; TGI (OVCAR-5 ovarian): > 100 µM; TGI (OVCAR-8 ovarian): > 100 µM; TGI (RPMI-8226 leukemia): > 100 µM; TGI (RXF 393 renal): > 100 µM; TGI (SF-268 CNS): > 100 µM; TGI (SF-295 CNS): > 100 µM; TGI (SF-539 CNS): > 100 µM; TGI (SK-MEL-2 melanoma): > 100 µM; TGI (SK-MEL-28 melanoma): > 100 µM; TGI (SK-MEL-5 melanoma): > 100 µM; TGI (SK-OV-3 ovarian): > 100 µM; TGI (SN12C renal): > 100 µM; TGI (SNB-19 CNS): > 100 µM; TGI (SNB-75 CNS): > 100 µM; TGI (SR leukemia): > 100 µM; TGI (SW-620 colon): > 100 µM; TGI (T-47D breast): > 100 µM; TGI (TK-10 renal): > 100 µM; TGI (UACC-257 melanoma): > 100 µM; TGI (UACC-62 melanoma): > 100 µM; TGI (UO-31 renal): > 100 µM

Question: For `CC(C)=C1C(=O)c2c(Cl)sc(Cl)c2C1=O`, which TGI (786-0 renal) is on record?
Answer: 74.9 µM

Question: What about the TGI (A498 renal) of the same compound?
Answer: > 100 µM

Question: What about the TGI (A549 NSCLC) of the same compound?
Answer: 81.8 µM

Question: And the TGI (ACHN renal)?
Answer: 40.8 µM

Question: What about the TGI (BT-549 breast) of the same compound?
Answer: 42.9 µM

Question: What about the TGI (CAKI-1 renal) of the same compound?
Answer: 32.7 µM

Question: And the TGI (CCRF-CEM leukemia)?
Answer: > 100 µM

Question: And the TGI (COLO 205 colon)?
Answer: 38.2 µM

Question: What about the TGI (DU-145 prostate) of the same compound?
Answer: 62.1 µM

Question: And the TGI (EKVX NSCLC)?
Answer: 81.1 µM

Question: What about the TGI (HCT-116 colon) of the same compound?
Answer: 33 µM

Question: And the TGI (HCT-15 colon)?
Answer: 43.3 µM

Question: And the TGI (HL-60(TB) leukemia)?
Answer: 90.7 µM

Question: What about the TGI (HOP-62 NSCLC) of the same compound?
Answer: > 100 µM

Question: What about the TGI (HOP-92 NSCLC) of the same compound?
Answer: 45.5 µM

Question: And the TGI (HS 578T breast)?
Answer: 80.2 µM

Question: What about the TGI (HT29 colon) of the same compound?
Answer: 67.8 µM

Question: And the TGI (IGROV1 ovarian)?
Answer: 46 µM

Question: And the TGI (K-562 leukemia)?
Answer: > 100 µM

Question: What about the TGI (KM12 colon) of the same compound?
Answer: 33.8 µM

Question: And the TGI (LOX IMVI melanoma)?
Answer: 34.2 µM

Question: And the TGI (M14 melanoma)?
Answer: 37.9 µM

Question: What about the TGI (MALME-3M melanoma) of the same compound?
Answer: 44.5 µM

Question: And the TGI (MCF7 breast)?
Answer: > 100 µM

Question: And the TGI (MDA-MB-231 breast)?
Answer: 57.4 µM

Question: And the TGI (MDA-MB-435)?
Answer: 39 µM

Question: What about the TGI (MDA-N) of the same compound?
Answer: 64 µM

Question: And the TGI (MOLT-4 leukemia)?
Answer: 94.7 µM

Question: And the TGI (NCI-H226 lung)?
Answer: > 100 µM

Question: What about the TGI (NCI-H23 lung) of the same compound?
Answer: 36.6 µM

Question: What about the TGI (NCI-H460 lung) of the same compound?
Answer: > 100 µM

Question: What about the TGI (NCI-H522 lung) of the same compound?
Answer: 32.6 µM

Question: What about the TGI (NCI/ADR-RES ovarian) of the same compound?
Answer: 54.5 µM

Question: What about the TGI (OVCAR-3 ovarian) of the same compound?
Answer: 75.1 µM

Question: And the TGI (OVCAR-4 ovarian)?
Answer: 34.5 µM

Question: What about the TGI (OVCAR-5 ovarian) of the same compound?
Answer: > 100 µM

Question: And the TGI (OVCAR-8 ovarian)?
Answer: 38.3 µM

Question: What about the TGI (SF-268 CNS) of the same compound?
Answer: 79.5 µM

Question: And the TGI (SF-295 CNS)?
Answer: > 100 µM

Question: And the TGI (SF-539 CNS)?
Answer: 50.5 µM

Question: What about the TGI (SK-MEL-2 melanoma) of the same compound?
Answer: 50.6 µM

Question: What about the TGI (SK-MEL-28 melanoma) of the same compound?
Answer: 58.3 µM

Question: And the TGI (SK-MEL-5 melanoma)?
Answer: > 100 µM

Question: And the TGI (SK-OV-3 ovarian)?
Answer: > 100 µM

Question: What about the TGI (SN12C renal) of the same compound?
Answer: 48 µM

Question: And the TGI (SNB-75 CNS)?
Answer: 59.9 µM

Question: And the TGI (SR leukemia)?
Answer: > 100 µM

Question: What about the TGI (SW-620 colon) of the same compound?
Answer: 70.5 µM

Question: And the TGI (T-47D breast)?
Answer: 97.6 µM

Question: And the TGI (TK-10 renal)?
Answer: 56.7 µM

Question: And the TGI (U251 CNS)?
Answer: 46.3 µM

Question: And the TGI (UACC-257 melanoma)?
Answer: 43 µM

Question: And the TGI (UACC-62 melanoma)?
Answer: 38.3 µM

Question: What about the TGI (UO-31 renal) of the same compound?
Answer: 60.4 µM

Question: Which results are given for `CC(=O)c1c(SCCN2CCCCCC2)n(-c2ccccc2)c(=S)n(-c2ccccc2)c1=O`?
Answer: TGI (786-0 renal): 3.36 µM; TGI (A498 renal): 28.7 µM; TGI (A549 NSCLC): 15.2 µM; TGI (ACHN renal): 3.31 µM; TGI (BT-549 breast): 32.7 µM; TGI (CAKI-1 renal): 8.26 µM; TGI (CCRF-CEM leukemia): 1.24 µM; TGI (COLO 205 colon): 3.67 µM; TGI (DU-145 prostate): 5.18 µM; TGI (EKVX NSCLC): 40.4 µM; TGI (HCC-2998 colon): 14.6 µM; TGI (HCT-116 colon): 18.5 µM; TGI (HCT-15 colon): 33.7 µM; TGI (HOP-62 NSCLC): > 56.4 µM; TGI (HOP-92 NSCLC): 20.1 µM; TGI (HS 578T breast): 64.1 µM; TGI (HT29 colon): 20.7 µM; TGI (IGROV1 ovarian): 22.7 µM; TGI (K-562 leukemia): 10.9 µM; TGI (KM12 colon): > 54.1 µM; TGI (LOX IMVI melanoma): 12.5 µM; TGI (M14 melanoma): 4.9 µM; TGI (MALME-3M melanoma): 3.51 µM; TGI (MDA-MB-231 breast): 28.1 µM; TGI (MDA-MB-435): 25.5 µM; TGI (MDA-N): 20.3 µM; TGI (NCI-H226 lung): 61.3 µM; TGI (NCI-H23 lung): 38.2 µM; TGI (NCI-H460 lung): > 54.4 µM; TGI (NCI-H522 lung): 2.95 µM; TGI (NCI/ADR-RES ovarian): > 100 µM; TGI (OVCAR-3 ovarian): 12 µM; TGI (OVCAR-4 ovarian): 79.3 µM; TGI (OVCAR-5 ovarian): > 69 µM; TGI (OVCAR-8 ovarian): 24.4 µM; TGI (PC-3 prostate): 14.2 µM; TGI (RXF 393 renal): 3.41 µM; TGI (SF-268 CNS): 26.3 µM; TGI (SF-295 CNS): > 100 µM; TGI (SF-539 CNS): 13.1 µM; TGI (SK-MEL-2 melanoma): 43.2 µM; TGI (SK-MEL-28 melanoma): 23.4 µM; TGI (SK-MEL-5 melanoma): 22.2 µM; TGI (SK-OV-3 ovarian): > 100 µM; TGI (SN12C renal): 19.5 µM; TGI (SNB-19 CNS): > 100 µM; TGI (SNB-75 CNS): 32.8 µM; TGI (SR leukemia): 8.58 µM; TGI (SW-620 colon): 4.96 µM; TGI (T-47D breast): 7.36 µM; TGI (TK-10 renal): 4.45 µM; TGI (U251 CNS): 32.5 µM; TGI (UACC-257 melanoma): 9.62 µM; TGI (UACC-62 melanoma): 21 µM
